Reference: patent US20110172147A1, “NEUROPEPTIDE-2 RECEPTOR (Y-2R) AGONISTS” (priority 2009, published 2011)
*1 amine or outer side, *2 acyl side, *3 side chain or, on linkers, in order; H or OH if unused. Where a SMILES comes first, the peptide text is derived from it. [ ]: non-standard residue; d: D form. The star is where a group is joined. MeO(CH2CH2O)23CH2CH2CO = COCCOCCOCCOCCOCCOCCOCCOCCOCCOCCOCCOCCOCCOCCOCCOCCOCCOCCOCCOCCOCCOCCOCCOCCC(=O)*; X1 = O=C(Cn1cnc2ccc(N3CCN([*:1])CC3)cc2c1=O)[*:2]; Arachidoyl = CCCCCCCCCCCCCCCCCCCC(=O)*

Tests used:
Type in all cases: cell-based
[1] = biological target: T1, hNPY2R (Homo sapiens, UniProt P49146); assay: cAMP Agonist Assay, HEK293/hNPY2R; parameters: expressed in transfected cells; host or cells: HEK293/hNPY2R (G418 selection)
T1 sequence (P49146 1-381): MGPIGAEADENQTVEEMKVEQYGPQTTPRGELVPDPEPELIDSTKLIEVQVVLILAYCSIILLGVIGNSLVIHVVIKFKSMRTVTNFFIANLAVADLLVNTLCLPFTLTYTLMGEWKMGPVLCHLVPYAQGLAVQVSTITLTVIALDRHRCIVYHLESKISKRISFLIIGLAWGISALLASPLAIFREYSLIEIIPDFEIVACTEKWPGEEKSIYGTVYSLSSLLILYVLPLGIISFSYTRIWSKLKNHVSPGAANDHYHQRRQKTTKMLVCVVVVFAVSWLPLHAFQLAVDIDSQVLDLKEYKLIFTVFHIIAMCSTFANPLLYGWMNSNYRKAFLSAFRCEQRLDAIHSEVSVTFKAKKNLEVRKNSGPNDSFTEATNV
How it was run: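 Intracellular cAMP quantified by luminescent competitive ELISA after a 30 min room-temperature treatment of overnight-plated HEK293/hNPY2R cells with compound in medium containing 5 μM forskolin, 0.5 mM IBMX and 1.1% DMSO; four replicates per concentration.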

[2] = biological target: T2, Y1R (Homo sapiens, UniProt P25929); assay: CaFlux Assay (FLIPR), Y1R
T2 sequence (P25929 1-384): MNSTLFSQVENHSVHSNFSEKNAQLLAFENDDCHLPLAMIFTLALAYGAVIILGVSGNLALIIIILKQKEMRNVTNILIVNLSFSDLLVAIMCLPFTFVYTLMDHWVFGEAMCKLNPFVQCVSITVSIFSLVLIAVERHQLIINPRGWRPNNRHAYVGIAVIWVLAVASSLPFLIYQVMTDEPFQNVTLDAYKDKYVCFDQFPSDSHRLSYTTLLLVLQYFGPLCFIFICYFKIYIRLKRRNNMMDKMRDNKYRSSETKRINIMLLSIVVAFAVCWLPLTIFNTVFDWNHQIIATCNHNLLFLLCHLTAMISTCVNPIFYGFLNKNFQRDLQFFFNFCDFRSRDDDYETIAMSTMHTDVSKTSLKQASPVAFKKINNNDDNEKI

[3] = biological target: T1, hNPY2R; assay: CaFlux Assay (FLIPR), Y2R; parameters: expressed in transfected cells; host or cells: HEK-293 stably transfected with G protein chimera Gαqi9
How it was run: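 Gαqi9-chimera HEK-293 stable lines; Calcium-3 dye load 1 h, 37 °C (HBSS, 20 mM HEPES, 5 mM probenecid); compound in HBSS/0.05% BSA/1% DMSO; FLIPR read every 1.5 s for 100 s; peak minus pre-addition baseline, % of max positive-control response.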

[4] = biological target: T3, Y5R (Homo sapiens, UniProt Q15761); assay: CaFlux Assay (FLIPR), Y5R
T3 sequence (Q15761 1-445): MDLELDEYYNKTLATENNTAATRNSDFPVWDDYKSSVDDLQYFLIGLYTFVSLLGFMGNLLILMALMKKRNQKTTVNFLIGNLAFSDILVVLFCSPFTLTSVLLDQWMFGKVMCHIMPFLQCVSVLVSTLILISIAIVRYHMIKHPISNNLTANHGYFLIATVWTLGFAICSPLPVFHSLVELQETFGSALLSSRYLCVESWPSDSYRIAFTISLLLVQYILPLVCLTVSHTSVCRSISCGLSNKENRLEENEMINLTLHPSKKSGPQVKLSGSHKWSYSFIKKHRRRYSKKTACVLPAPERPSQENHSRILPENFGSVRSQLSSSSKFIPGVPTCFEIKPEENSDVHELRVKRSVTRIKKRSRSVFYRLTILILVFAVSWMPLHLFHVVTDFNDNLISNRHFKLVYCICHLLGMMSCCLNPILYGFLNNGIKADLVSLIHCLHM

[5] = biological target: Y4R (Homo sapiens, UniProt P50391); assay: CaFlux Assay (FLIPR), Y4R
Sequence of Y4R (P50391 whole entry): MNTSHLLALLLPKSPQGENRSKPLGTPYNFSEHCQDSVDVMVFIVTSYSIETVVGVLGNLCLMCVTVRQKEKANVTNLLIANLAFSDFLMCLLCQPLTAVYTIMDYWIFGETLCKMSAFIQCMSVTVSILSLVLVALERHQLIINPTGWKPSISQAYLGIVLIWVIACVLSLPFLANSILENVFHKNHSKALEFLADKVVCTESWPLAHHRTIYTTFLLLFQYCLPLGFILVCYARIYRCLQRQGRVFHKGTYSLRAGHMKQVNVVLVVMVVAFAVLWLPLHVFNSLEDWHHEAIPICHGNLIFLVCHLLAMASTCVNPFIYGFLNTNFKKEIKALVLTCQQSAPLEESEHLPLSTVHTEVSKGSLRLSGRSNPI

SMILES | EC50 [1] [nM] | EC50 [2] [µM] | EC50 [3] [nM] | EC50 [4] [nM] | EC50 [5] [µM]
CCCCCCCCCCCCCCCC(=O)NCCCCCC(=O)NCCCCCC(=O)N[C@@H](C(=O)N[C@@H](CCCCNC(=O)CCOCCOCCOCCOCCOCCOCCOCCOCCOCCOCCOCCOCCOCCOCCOCCOCCOCCOCCOCCOCCOCCOCCOCCOC)C(=O)N1CCN(c2ccc3ncn(CC(=O)N[C@@H](CCCNC(=N)N)C(=O)N[C@@H](Cc4c[nH]cn4)C(=O)N[C@@H](Cc4ccc(O)cc4)C(=O)N[C@@H](CC(C)C)C(=O)N[C@@H](CC(N)=O)C(=O)N[C@@H](Cc4c[nH]c5ccccc45)C(=O)N[C@H](C(=O)N[C@H](C(=O)N[C@@H](CCCNC(=N)N)C(=O)N[C@@H](CCC(N)=O)C(=O)N(C)[C@@H](CCCNC(=N)N)C(=O)N[C@@H](Cc4ccc(O)cc4)C(N)=O)[C@@H](C)O)C(C)C)c(=O)c3c2)CC1)[C@@H](C)CC [Example 43] | 0.1 | > 6 | 0.1 | 316 | > 6
CCCCCCCCCCCCCCCCCCCC(=O)N[C@@H](CCC(=O)O)C(=O)N[C@@H](CCC(=O)O)C(=O)N[C@H](C(=O)N[C@@H](CCCCNC(=O)CCOCCOCCOCCOCCOCCOCCOCCOCCOCCOCCOCCOCCOCCOCCOCCOCCOCCOCCOCCOCCOCCOCCOCCOC)C(=O)N1CCN(c2ccc3ncn(CC(=O)N[C@@H](CCCNC(=N)N)C(=O)N[C@@H](Cc4c[nH]cn4)C(=O)N[C@@H](Cc4ccc(O)cc4)C(=O)N[C@@H](CC(C)C)C(=O)N[C@@H](CC(N)=O)C(=O)N[C@@H](Cc4c[nH]c5ccccc45)C(=O)N[C@H](C(=O)N[C@H](C(=O)N[C@@H](CCCNC(=N)N)C(=O)N[C@@H](CCC(N)=O)C(=O)N(C)[C@@H](CCCNC(=N)N)C(=O)N[C@@H](Cc4ccc(O)cc4)C(N)=O)[C@@H](C)O)C(C)C)c(=O)c3c2)CC1)[C@@H](C)CC [Example 52] | 0.2 | > 9 | 0.147 | 4260 | > 9
CCCCCCCCCCCCCCCCCCCC(=O)N[C@@H](CCC(=O)O)C(=O)N[C@@H](CCC(=O)O)C(=O)N[C@H](C(=O)N[C@@H](CCCCNC(=O)CCOCCOCCOCCOCCOCCOCCOCCOCCOCCOCCOCCOCCOCCOCCOCCOCCOCCOCCOCCOCCOCCOCCOCCOC)C(=O)N1CCN(c2ccc3ncn(CC(=O)N[C@@H](CCCNC(=N)N)C(=O)N[C@@H](Cc4c[nH]cn4)C(=O)N[C@@H](Cc4ccc(O)cc4)C(=O)N[C@@H](Cc4c[nH]cn4)C(=O)N[C@@H](CC(N)=O)C(=O)N[C@@H](Cc4c[nH]c5ccccc45)C(=O)N[C@H](C(=O)N[C@H](C(=O)N[C@@H](CCCNC(=N)N)C(=O)N[C@@H](CCC(N)=O)C(=O)N[C@@H](CCCNC(=N)N)C(=O)N[C@@H](Cc4ccc(O)cc4)C(N)=O)[C@@H](C)O)C(C)C)c(=O)c3c2)CC1)[C@@H](C)CC [Example 57] (Arachidoyl-EEIK(MeO(CH2CH2O)23CH2CH2CO)[X1]RHYHNWVTRQRY-NH2) | 0.011 | > 6 | 0.016 | 5.67 | > 6
CCCCCCCCCCCCCCCC(=O)NCCCCCC(=O)NCCCC[C@H](NC(=O)[C@@H](NC(=O)CCOCCOCCOCCOCCOCCOCCOCCOCCOCCOCCOCCOCCOCCOCCOCCOC)[C@@H](C)CC)C(=O)N1CCN(c2ccc3ncn(CC(=O)N[C@@H](CCCNC(=N)N)C(=O)N[C@@H](Cc4c[nH]cn4)C(=O)N[C@@H](Cc4ccc(O)cc4)C(=O)N[C@@H](CC(C)C)C(=O)N[C@@H](CC(N)=O)C(=O)N[C@@H](Cc4c[nH]c5ccccc45)C(=O)N[C@H](C(=O)N[C@H](C(=O)N[C@@H](CCCNC(=N)N)C(=O)N[C@@H](CCC(N)=O)C(=O)N(C)[C@@H](CCCNC(=N)N)C(=O)N[C@@H](Cc4ccc(O)cc4)C(N)=O)[C@@H](C)O)C(C)C)c(=O)c3c2)CC1 [Example 10] | 0.13 | > 5 | 0.04 | 816 | > 5
CCCCCCCCCCCCCCCC(=O)NCCCCCC(=O)NCCOCCOCCOCCOCCOCCOCCOCCOCCOCCOCCOCCOCCOCCOCCOCCOCCOCCOCCOCCOCCOCCOCCOCCOCCC(=O)NCCCC[C@H](NC(=O)[C@@H](NC(C)=O)[C@@H](C)CC)C(=O)N1CCN(c2ccc3ncn(CC(=O)N[C@@H](CCCNC(=N)N)C(=O)N[C@@H](Cc4c[nH]cn4)C(=O)N[C@@H](Cc4ccc(O)cc4)C(=O)N[C@@H](CC(C)C)C(=O)N[C@@H](CC(N)=O)C(=O)N[C@@H](Cc4c[nH]c5ccccc45)C(=O)N[C@H](C(=O)N[C@H](C(=O)N[C@@H](CCCNC(=N)N)C(=O)N[C@@H](CCC(N)=O)C(=O)N(C)[C@@H](CCCNC(=N)N)C(=O)N[C@@H](Cc4ccc(O)cc4)C(N)=O)[C@@H](C)O)C(C)C)c(=O)c3c2)CC1 [Example 39] | 0.07 | > 6 | 0.038 | 1950 | > 6
CCCCCCCCCCCCCCCCCCCC(=O)N[C@@H](CCC(=O)N[C@@H](CCC(=O)N[C@H](C(=O)N[C@@H](CCCCNC(=O)CCOCCOCCOCCOCCOCCOCCOCCOCCOCCOCCOCCOCCOCCOCCOCCOC)C(=O)N1CCN(c2ccc3ncn(CC(=O)N[C@@H](CCCNC(=N)N)C(=O)N[C@@H](Cc4c[nH]cn4)C(=O)N[C@@H](Cc4ccc(O)cc4)C(=O)N[C@@H](CC(C)C)C(=O)N[C@@H](CC(N)=O)C(=O)N[C@@H](Cc4c[nH]c5ccccc45)C(=O)N[C@H](C(=O)N[C@H](C(=O)N[C@@H](CCCNC(=N)N)C(=O)N[C@@H](CCC(N)=O)C(=O)N(C)[C@@H](CCCNC(=N)N)C(=O)N[C@@H](Cc4ccc(O)cc4)C(N)=O)[C@@H](C)O)C(C)C)c(=O)c3c2)CC1)[C@@H](C)CC)C(=O)O)C(=O)O [Example 59] | 0.29 | > 9 | 0.285 | 3880 | > 9
CCCCCCCCCCCCCCCC(=O)NCCOCCNC(=O)CCC(=O)NCCCC[C@H](NC(=O)[C@@H](NC(=O)CCOCCOCCOCCOCCOCCOCCOCCOCCOCCOCCOCCOC)[C@@H](C)CC)C(=O)N1CCN(c2ccc3ncn(CC(=O)N[C@@H](CCCNC(=N)N)C(=O)N[C@@H](Cc4c[nH]cn4)C(=O)N[C@@H](Cc4ccc(O)cc4)C(=O)N[C@@H](CC(C)C)C(=O)N[C@@H](CC(N)=O)C(=O)N[C@@H](Cc4c[nH]c5ccccc45)C(=O)N[C@H](C(=O)N[C@H](C(=O)N[C@@H](CCCNC(=N)N)C(=O)N[C@@H](CCC(N)=O)C(=O)N(C)[C@@H](CCCNC(=N)N)C(=O)N[C@@H](Cc4ccc(O)cc4)C(N)=O)[C@@H](C)O)C(C)C)c(=O)c3c2)CC1 [Example 13] | 0.15 | > 5 | 0.055 | 401 | > 5
CCCCCCCCCCCCCCCC(=O)NCCCCCC(=O)N[C@H](C(=O)N[C@@H](CCCCNC(=O)CCOCCOCCOCCOCCOCCOCCOCCOCCOCCOCCOCCOC)C(=O)N1CCN(c2ccc3ncn(CC(=O)N[C@@H](CCCNC(N)=O)C(=O)N[C@@H](Cc4c[nH]cn4)C(=O)N[C@@H](Cc4ccc(O)cc4)C(=O)N[C@@H](CC(C)C)C(=O)N[C@@H](CC(N)=O)C(=O)N[C@@H](Cc4c[nH]c5ccccc45)C(=O)N[C@H](C(=O)N[C@H](C(=O)N[C@@H](CCCNC(=N)N)C(=O)N[C@@H](CCC(N)=O)C(=O)N(C)[C@@H](CCCNC(=N)N)C(=O)N[C@@H](Cc4ccc(O)cc4)C(N)=O)[C@@H](C)O)C(C)C)c(=O)c3c2)CC1)[C@@H](C)CC [Example 31] | 0.37 | > 6 | 0.111 | 3510 | > 6
